Structures can show the parent of a compound that is named as a salt.
Structure (SMILES)	melting point
O=C1C(NCCN2CCCC2)=CC(=O)c2sc(C(=O)N3CCN(C(=O)N4CCOCC4)CC3)nc21 [Example 17, 2-{[4-(morpholin-4-ylcarbonyl)piperazin-1-yl]carbonyl}-5-[(2-pyrrolidin-1-ylethyl)amino]-1,3-benzothiazole-4,7-dione]	193 to 194 °C
CC(C)CNC(=O)c1nc2c(s1)C(=O)C=C(NCCN(C)C)C2=O [Example 7, 5-{[2-(dimethylamino)ethyl]amino}-N-isobutyl-4,7-dioxo-4,7-dihydro-1,3-benzothiazole-2-carboxamide]	163 to 164 °C
COc1ccc(NC(=O)c2nc3c(s2)C(=O)C=C(NCCN(C)C)C3=O)cc1 (as salt: methanesulphonate) [Example 18, 5-{[2-(dimethylamino)ethyl]amino}-N-(4-methoxyphenyl)-4,7-dioxo-4,7-dihydro-1,3-benzothiazole-2-carboxamide]	207 to 208 °C
COCCN(CCOC)C(=O)c1nc2c(s1)C(=O)C=C(NCCN(C)C)C2=O [Example 4, 5-{[2-(dimethylamino)ethyl]amino}-N,N-bis(2-methoxyethyl)-4,7-dioxo-4,7-dihydro-1,3-benzothiazole-2-carboxamide]	92 to 94 °C
CN(C)CCNC1=CC(=O)c2sc(C(=O)N3CCN(C(=O)N4CCOCC4)CC3)nc2C1=O [Example 16, 5-{[2-(dimethylamino)ethyl]amino}-2-{[4-(morpholin-4-ylcarbonyl)piperazin-1-yl]carbonyl}-1,3-benzothiazole-4,7-dione]	211 to 212 °C
CN(C)CCNC1=CC(=O)c2sc(C(=O)NCC3CCCCC3)nc2C1=O [Example 13, N-(cyclohexylmethyl)-5-{[2-(dimethylamino)ethyl]amino}-4,7-dioxo-4,7-dihydro-1,3-benzothiazole-2-carboxamide]	171 to 172 °C
CN(C)CCNC1=CC(=O)c2sc(C(=O)N3CCN(S(C)(=O)=O)CC3)nc2C1=O [Example 19, 5-{[2-(dimethylamino)ethyl]amino}-2-{[4-(methylsulphonyl)piperazin-1-yl]carbonyl}-1,3-benzothiazole-4,7-dione]	201 to 202 °C
CN(C)CCNC1=CC(=O)c2sc(C(=O)Nc3ccc4c(c3)OCO4)nc2C1=O [Example 26, N-1,3-benzodioxol-5-yl-5-{[2-(dimethylamino)ethyl]amino}-4,7-dioxo-4,7-dihydro-1,3-benzothiazole-2-carboxamide]	220 to 221 °C
CN(C)CCNC1=CC(=O)c2sc(C(=O)Nc3ccc(F)cc3)nc2C1=O [Example 33, 5-{[2-(dimethylamino)ethyl]amino}-N-(4-fluorophenyl)-4,7-dioxo-4,7-dihydro-1,3-benzothiazole-2-carboxamide]	208 to 209 °C
CN(C)CCNC1=C(Br)C(=O)c2sc(C(=O)N3CCN(C(=O)C4CCCO4)CC3)nc2C1=O (centres unmarked) [Example 21, 6-bromo-5-{[2-(dimethylamino)ethyl]amino}-2-{[4-(tetrahydrofuran-2-ylcarbonyl)piperazin-1-yl]carbonyl}-1,3-benzothiazole-4,7-dione]	161 to 162 °C
COc1ccc2c(c1)CCCN2C(=O)c1nc2c(s1)C(=O)C=C(NCCN(C)C)C2=O [Example 36, 5-{[2-(dimethylamino)ethyl]amino}-2-[(6-methoxy-3,4-dihydroquinolin-1(2H)-yl)carbonyl]-1,3-benzothiazole-4,7-dione]	192 to 193 °C
COc1ccc(NC(=O)c2nc3c(s2)C(=O)C=C(NCCN(C)C)C3=O)cc1F [Example 35, 5-{[2-(dimethylamino)ethyl]amino}-N-(3-fluoro-4-methoxyphenyl)-4,7-dioxo-4,7-dihydro-1,3-benzothiazole-2-carboxamide]	199 to 200 °C
CCNC(=O)c1nc2c(s1)C(=O)C=C(NCCc1ccc(F)cc1)C2=O [Example 39, N-ethyl-5-{[2-(4-fluorophenyl)ethyl]amino}-4,7-dioxo-4,7-dihydro-1,3-benzothiazole-2-carboxamide]	260 to 261 °C
CN(C)CCNC1=CC(=O)c2sc(C(=O)NCc3ccccc3)nc2C1=O [Example 12, N-benzyl-5-{[2-(dimethylamino)ethyl]amino}-4,7-dioxo-4,7-dihydro-1,3-benzothiazole-2-carboxamide]	188 to 189 °C
CN(C)CCNC1=CC(=O)c2sc(C(=O)N3CCOCC3)nc2C1=O [Example 1, 5-{[2-(dimethylamino)ethyl]amino}-2-(morpholin-4-ylcarbonyl)-1,3-benzothiazole-4,7-dione]	207 to 208 °C
CN(C)CCNC1=CC(=O)c2sc(C(=O)NCCCN3CCCC3=O)nc2C1=O [Example 5, 5-{[2-(dimethylamino)ethyl]amino}-4,7-dioxo-N-[3-(2-oxopyrrolidin-1-yl)propyl]-4,7-dihydro-1,3-benzothiazole-2-carboxamide]	154 to 156 °C
COc1ccc(C(=O)N2CCN(C(=O)c3nc4c(s3)C(=O)C=C(NCCN(C)C)C4=O)CC2)cc1 [Example 37, 5-{[2-(dimethylamino)ethyl]amino}-2-{[4-(4-methoxybenzoyl)piperazin-1-yl]carbonyl}-1,3-benzothiazole-4,7-dione]	209 to 210 °C
CN(C)CCNC1=CC(=O)c2nc(C(=O)N3CCCC3)sc2C1=O [Example 34, 6-{[2-(dimethylamino)ethyl]amino}-2-(pyrrolidin-1-ylcarbonyl)-1,3-benzothiazole-4,7-dione]	224 to 225 °C
CCNC(=O)c1nc2c(s1)C(=O)C=C(NCCN(C)C)C2=O [Example 24, 5-{[2-(dimethylamino)ethyl]amino}-N-ethyl-4,7-dioxo-4,7-dihydro-1,3-benzothiazole-2-carboxamide]	174 to 175 °C
CCNC(=O)c1nc2c(s1)C(=O)C=C(N(C)CCN(C)C)C2=O [Example 38, 5-[[2-(dimethylamino)ethyl](methyl)amino]-N-ethyl-4,7-dioxo-4,7-dihydro-1,3-benzothiazole-2-carboxamide]	163 to 164 °C
CN(C)CCNC1=CC(=O)c2sc(C(=O)N3CCN(C(=O)C4CCCO4)CC3)nc2C1=O (centres unmarked) [Example 20, 5-{[2-(dimethylamino)ethyl]amino}-2-{[4-(tetrahydrofuran-2-ylcarbonyl)piperazin-1-yl]carbonyl}-1,3-benzothiazole-4,7-dione]	168 to 169 °C
CN(C)CCNC1=CC(=O)c2sc(C(=O)NCCOCCOCCNC(=O)OC(C)(C)C)nc2C1=O [Example 2, tert-butyl {2-[2-(2-{[(5-{[2-(dimethylamino)ethyl]amino}-4,7-dioxo-4,7-dihydro-1,3-benzothiazol-2-yl)carbonyl]amino}ethoxy)ethoxy]ethyl}carbamate]	55 to 57 °C
CN(C)CCNC1=CC(=O)c2sc(C(=O)N3CCCC3)nc2C1=O [Example 22, 5-{[2-(dimethylamino)ethyl]amino}-2-(pyrrolidin-1-ylcarbonyl)-1,3-benzothiazole-4,7-dione]	207 to 208 °C

Source: patent US7795284B2, “4,7-dioxobenzothiazole-2-carboxamide derivatives, their preparation and their therapeutic uses” (Ipsen Pharma S.A.S., priority 2004, dated 2010)
